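Each compound was tested at five concentrations against cells in 96-well plates for 48 hours. TGI: total growth inhibition.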
Key:
Test in all cases: NCI tumour cell line growth inhibition, 48 h
SK-OV-3 ovarian = test system: SK-OV-3 ovarian
U251 CNS = test system: U251 CNS
IGROV1 ovarian = test system: IGROV1 ovarian
OVCAR-8 ovarian = test system: OVCAR-8 ovarian
HCT-116 colon = test system: HCT-116 colon
NCI-H226 lung = test system: NCI-H226 lung
786-0 renal = test system: 786-0 renal
A549 NSCLC = test system: A549 NSCLC
LOX IMVI melanoma = test system: LOX IMVI melanoma
DU-145 prostate = test system: DU-145 prostate

Measured: TGI

NC(=O)N/N=C1/CCC(O)CC1CC(=O)O (stereo not given)
> 100 µM: all assays above

Source: PubChem BioAssay (NCI)
